Source: patent US12448372B2, “Class of triaromatic compounds targeting bifunctional phosphorylation site of STAT3 and applications thereof” (SHANGHAI YUYAO BIOTECH LTD., priority 2019, dated 2025)
“Also recorded” adds a separate entry of the source. Like-named read-outs stand apart in the source and are kept apart here.

Columns and labels:
[1] = Acute toxicological experiments, survival of normal mice; conditions: dose of 80 mg/kg, FIG. 5E
[2] = tested on: SK-hep1; experiment: Cell proliferation by MTS method, SK-hep1; type: cell-based; conditions: Homo sapiens, Liver Cancer
Description: (§1) (2) Detection of Cell Proliferation by MTS Method
(§2) The MTS assay is a method for indirectly determining the number of living cells via colourimetric method. MTS is a newly synthesised tetrazole compound that reflects cell viability, which can be reduced by succinate dehydrogenase in the mitochondria of living cells to an orange-coloured formazan with an absorbance of the reduced product measured at 490 nm being in proportion to the number of living cells, thus reflecting the cell viability. This assay can be used to evaluate the effect of the compound on the proliferation of pancreatic cancer cells, thereby determining the inhibitory effect of the compound on the proliferation of pancreatic cancer cells and to calculate the IC^50. Each cells were inoculated uniformly into a 96-well plate at a density of 1-20×10^3 cells/well, 100 μL per well, and placed in a constant temperature incubator until the cells adhered to the wall. […] Under light-proof conditions, MTS was added and well mixed, the mixture was placed in a constant temperature incubator at 37° C., and the light absorption value were measured using an enzyme marker at 490 nm and the experiment was repeated for three times, IC50 was calculated with GraphPad5 Prism software.

[3] = tested on: H1975; experiment: Cell proliferation by MTS method, H1975; type: cell-based; conditions: Homo sapiens, NCI-H1975, Lung Cancer
Description: as §1, §2

[4] = tested on: mouse pancreatic cancer cells Pan02-Luci; experiment: Pancreatic cancer liver metastasis model, Pan02-Luci in C57BL/6 mice; type: in vivo
Description: (1) Animal Experiment on Pancreatic Cancer Liver Metastasis
Pancreatic cancer is a malignant tumor of the gastrointestinal tract, with rapidly progressing condition, high degree of progression, and very limited clinical treatments, and metastasis is very likely to occur in the terminal stage, among which liver metastasis is the most common, and the occurrence of liver metastasis is also an important manifestation of the seriousness of the disease. In the present invention, by injecting pancreatic cancer cells into the spleen, the tumour cells will directed metastasize to the liver, thereby simulating the occurrence and metastasis process of pancreatic cancer liver metastasis. […] Fluorescence detection of mice was performed using the Small Animal In vivo Imaging Instrument (IVIS), according to the obtained fluorescence values, the mice were divided into control group, WB737 5 mg/kg/d low dose group, 10 mg/kg/d medium dose group and 20 mg/kg/d high dose group, and IACS-010759-10 mg/kg positive compound group, and the mean fluorescence values of each group were ensured to be consistent. […] Metastasiss were recorded using small animal in vivo imaging instrument (IVIS) during the experiment, and body weight of the mice was measured every 3-4 days. […]

[5] = tested on: HepG2; experiment: Cell proliferation by MTS method, HepG2; type: cell-based; conditions: Homo sapiens, Liver Cancer
Description: as §1, §2

[6] = tested on: SMMC7721; experiment: Cell proliferation by MTS method, SMMC7721; type: cell-based; conditions: Homo sapiens, SMMC-7721, Liver Cancer
Description: as §1, §2

[7] = tested on: human pancreatic cancer cells MIAPACA-2; experiment: Subcutaneous tumor-bearing experiment in nude mice, MIAPACA-2
Description: (1) Subcutaneous Tumor-Bearing Experiment in Nude Mice
Subcutaneous tumor-bearing experiment, i. e. tumour cells were injected subcutaneously into nude mice, and the tumour cells absorbed nutrients from the mice and rapidly proliferated to form tumours.
Tumour volume and mouse weight were measured every four days, and tumour volume was calculated according to the formula of volume=length×width^2×0.52. After 3 weeks post-administration, mice were sacrificed and subcutaneous tumours were peeled off, weighed and photographed.

[8] = tested on: H23; experiment: Cell proliferation by MTS method, H23; type: cell-based; conditions: Homo sapiens, NCI-H23, Lung Cancer
Description: as §1, §2

[9] = tested on: BGC823; experiment: Cell proliferation by MTS method, BGC823; type: cell-based; conditions: Homo sapiens, BGC-823, gastric Cancer
Description: as §1, §2

[10] = tested on: PANC-1; experiment: Cell proliferation by MTS method, PANC-1; type: cell-based; conditions: Homo sapiens, Pancreatic Cancer
Description: as §1, §2

[11] = tested on: Huh7; experiment: Cell proliferation by MTS method, Huh7; type: cell-based; conditions: Homo sapiens, Huh-7
Procedure, shortened: (§3)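 Following attachment at 1-20×10^3 cells per well, treatment with varied doses of compound lasted 24-96 h. Living-cell reduction of MTS at 37° C. was quantified by 490 nm absorbance, repeated three times to derive IC50.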

[12] = tested on: PLC/PRF-5; experiment: Cell proliferation by MTS method, PLC/PRF-5; type: cell-based; conditions: Homo sapiens, Liver Cancer
Description: as §1, §2

[13] = tested on: Capan-2; experiment: Cell proliferation by MTS method, Capan-2; type: cell-based; conditions: Homo sapiens
Procedure, shortened: as §3

[14] = tested on: DU145; experiment: Cell proliferation by MTS method, DU145; type: cell-based; conditions: Homo sapiens, DU-145, Prostate Cancer
Description: as §1, §2

[15] = tested on: MGC803; experiment: Cell proliferation by MTS method, MGC803; type: cell-based; conditions: Homo sapiens, MGC-803, gastric Cancer
Description: as §1, §2

[16] = tested on: H522; experiment: Cell proliferation by MTS method, H522; type: cell-based; conditions: Homo sapiens, NCI-H522, Lung Cancer
Description: as §1, §2

[17] = tested on: HCC827; experiment: Cell proliferation by MTS method, HCC827; type: cell-based; conditions: Homo sapiens
Procedure, shortened: as §3

[18] = tested on: a variety of tumour cells; experiment: Cell proliferation by MTS method, summary over a variety of tumour cells; type: cell-based; conditions: summary over different types of cancer cells; read-out: half effective proliferation inhibition concentration (IC50) against a variety of tumour cells
Description: as §1, §2

[19] = tested on: human pancreatic cancer cells PANC-1; experiment: Subcutaneous tumor-bearing experiment in nude mice, PANC-1
Description: (1-10)×10^6 human pancreatic cancer cells PANC-1 and MIAPACA-2 were injected subcutaneously into the right side of the back of immunodeficient mice (BALB/c-nude, nude mice, 5-6 weeks), and when the tumours grew to about 100 mm^3, the mice were evenly divided into five groups, i. e. blank control group; 5 mg/kg WB737 low-dose group; 10 mg/kg WB737 medium-dose group; 20 mg/kg WB737 high-dose group; 10 mg/kg IACS-010759 positive control group; all the above compounds were formulated with 0.5% MC and administered by gavage. Tumour volume and mouse weight were measured every four days, and tumour volume was calculated according to the formula of volume=length×width^2×0.52. After 3 weeks post-administration, mice were sacrificed and subcutaneous tumours were peeled off, weighed and photographed.

[20] = tested on: MIAPACA-2; experiment: Cell proliferation by MTS method, MIAPACA-2; type: cell-based; conditions: Homo sapiens, MIA PaCa-2, Pancreatic Cancer
Description: as §1, §2

[21] = tested on: CFPAC-1; experiment: Cell proliferation by MTS method, CFPAC-1; type: cell-based; conditions: Homo sapiens, Pancreatic Cancer
Description: as §1, §2

With `Cn1c(C(=O)N2CCN(Cc3ccc(OCC(F)(F)F)cc3)CC2)cc2ccc(Oc3cnc(-c4nc(-c5ccc(C(F)(F)F)cc5)no4)cn3)cc21` [Example 6, (6-((5-(3-(4-(trifluoromethyl)phenyl)-1,2,4-oxadiazol-5-yl)pyrazin-2-yl)oxy)1-methyl-1H-indol-2-yl)(4-(4-(2,2,2-trifluoroethoxy)benzyl)piperazin-1-yl)methanone] the “mortality of normal mice” value [1] was “no mice died”, the IC50 [2] was 18.6 nM and the IC50 [3] was 11.7 nM. The “liver metastasis of tumours” value ([4]; Pan02-Luci injected into spleen, C57BL/6 mice, 5, 10, 20 mg/kg/d by gavage, FIG. 4A/4B) was “dose-dependently inhibits liver metastasis of tumours”, the survival of mice ([4]; pancreatic tumour liver metastasis model (Pan02), 5, 10, 20 mg/kg by gavage once a day, FIG. 4C) was “significantly prolongs the survival of mice” and the IC50 [5] was 12 nM. For the same compound, the IC50 [6] was 6.4 nM, the “effect on the body weight of mice” value ([7]; MIAPACA-2 subcutaneous model, gavage, WB737 5-20 mg/kg, IACS-010759 10 mg/kg, FIG. 3D/5D) was “no significant effect on the body weight of mice; also recorded: good tolerability” and the “tumor growth (tumor volume and tumor weight)” value ([7]; MIAPACA-2 subcutaneous, BALB/c-nude mice, 5, 10, 20 mg/kg by gavage, 3 weeks, FIG. 3) was “significantly inhibits the growth of pancreatic tumour”. The IC50 [8] was 2.9 nM, the IC50 [9] was 6.1 ± 0.9 nM and the IC50 [10] was 8.1 nM. It also gave an IC50 ([11]; Liver Cancer, Huh7, read-out: IC50) of 8.6 nM, an IC50 ([11]; Table 1, Huh7, read-out: Tumour cell proliferative activity/IC50(nM) Liver Cancer Huh7) of less than 10 nM and an IC50 [12] of 1.8 nM. The IC50 ([13]; Pancreatic Cancer, Capan-2, read-out: IC50) was 9.4 nM, the IC50 ([13]; Table 1, Capan-2, read-out: Tumour cell proliferative activity/IC50(nM) Pancreatic Cancer Capan-2) was less than 10 nM and the IC50 [14] was 12.4 nM. For the same compound, the IC50 [15] was 3.6 nM, the IC50 [16] was 12 nM and the IC50 ([17]; Lung Cancer, HCC827, read-out: IC50) was 0.5 nM. The IC50 ([17]; Table 1, HCC827, read-out: Tumour cell proliferative activity/IC50(nM) Lung Cancer HCC827) was less than 10 nM, the IC50 [18] was 0.5 to 32 nM and the “effect on the body weight of mice” value ([19]; PANC-1 subcutaneous model, gavage, WB737 5-20 mg/kg, IACS-010759 10 mg/kg, FIG. 2D/5C) was “no significant effect on the body weight of mice; also recorded: good tolerability”. The “tumor growth (tumor volume and tumor weight)” value ([19]; PANC-1 subcutaneous, BALB/c-nude mice, 5, 10, 20 mg/kg by gavage, 3 weeks, FIG. 2) was “significantly inhibits the growth of pancreatic tumour”, the “phosphorylation of STAT3^Y705/S727 bifunctional phosphorylation site in tumour tissue (WB and IHC)” value ([19]; PANC-1 tumour tissues, FIG. 2E and 2F) was “dose-dependently inhibits phosphorylation” and the IC50 [20] was 8.8 nM. For the same compound, the IC50 [21] was 3.1 nM.
